“Also recorded” adds a separate entry of the source. Where two headings read alike, the source gives them in different places.
How the values were obtained:
CEM leukemia cells = assay: Mitochondrial membrane potential (Δψm) assay, TMRM, FACS; assay type: cell-based, human; settings: for preserving mitochondrial membrane potential Δψm: 1, 2.5 or 5 μM
Description: Measurement of Mitochondrial Membrane Potential (Δψm)(FACS). For the determination of Δψm, CEM leukemia cells were pre-treated with or without the test compounds. The cells were treated with 5 mM DEM for 120 minutes, collected by centrifugation at 300×g for 3 minutes and then washed twice with phosphate buffered saline. The cells were re-suspended in HSSB buffer and incubated at 37° C. in the dark for 15 minutes with 250 nM TMRM (a cationic dye which accumulates within mitochondria in accordance with the Δψm Nernst potential). Cells were collected by centrifugation at 300×g for 3 minutes and then washed twice with phosphate buffered saline. The samples were analyzed immediately by flow cytometry using 488 nm excitation laser and the FL2-H channel. The results obtained were verified in three independent experiments. The protonophore FCCP (30 μM) was used to dissipate the chemiosmotic proton gradient (ΔμH^+) and served as a control for loss of Δψm. In each analysis, 10,000 events were recorded.

FRDA fibroblasts = assay: Calcein-AM cell viability assay, BSO-treated FRDA fibroblasts; assay type: cell-based, human; settings: for protection of FRDA fibroblasts from oxidative damage (cell viability): BSO-treated FRDA fibroblast; for EC50: BSO-treated FRDA fibroblasts, calcein-AM fluorescence, read-out: EC50 (effective concentration that prevents 50% of cell death)
Description: A cell viability assay using the dye calcein acetoxymethyl (AM) was used to determine the effects of invention compounds on GSH-mediated cell death in primary FRDA patient derived fibroblasts (Jauslin et al. (2002) Human Molecular Genetics. 11, 3055-3063) FRDA fibroblasts were treated with L-buthionine (S,R)-sulfoximine (BSO) to inhibit de novo synthesis of GSH (Griffith et al. (1979) J. Biol. Chem. 254, 7558-7560) causing oxidative stress, plasma membrane damage and cell death. Fibroblasts from Friedreich Ataxia patients, but not control cells, die after GSH depletion on incubation with BSO (Jauslin et al. (2002) Human Molecular Genetics. 11, 3055-3063). Cell viability was determined using calcein-AM (Molecular Probe, Eugene, Oreg.). In live cells, non-fluorescent calcein AM is hydrolyzed by intracellular esterases to produce the strongly green fluorescent anion calcein.
Cell culture and reagents: Primary fibroblasts were derived from a patient donor with a molecular diagnosis of FRDA and control donor with no mitochondrial disease. These cell lines were obtained from Coriell Cell Repositories (Camden, N.J., USA; catalog numbers GM04078 and GM08402, respectively). Fibroblasts were cultured in 64% (v/v) Eagle's Minimal Essential Medium (MEM), no phenol red with Eagle's balanced salt (EBS) and 25% M199 with EBS (GIBCO, Grand island, N.Y., USA) supplemented with 10% (v/v) Fetal Calf Serum (HyClone, South Logan, Utah, USA), 1% penicillin-streptomycin mix antibiotics (Cellgro, Manassan, Va., USA), 10 ng/mL insulin (Sigma, St. Louis, Mo., USA), 10 ng/mL basic fibroblast growth factor βFGF (Lonza, Walkersville, Md., USA) and 2 mM glutamine (HyClone, South Logan, Utah, USA). BSO (L-buthionine (S,R)-sulfoximine) and (+)-alpha-tocopherol were purchased from Sigma Chemicals and calcein AM was purchased from Molecular Probes. Cell were grown in 75 cm^2 culture flasks (T75) and incubated at 37° C. in a humidified atmosphere of 5% CO2 in air. Cells were fed twice a week and split every third day at a ratio of 1:3 upon reaching confluency. The invention compounds and reduced and oxidized forms of idebenone and alpha-tocopherol were reconstituted in DMSO or ethanol to provide 2.5 mM stock solutions.
Intervention compounds were screened according to the previous protocol (Jauslin et al. (2002) Human Molecular Genetics. 11, 3055-3063): Fibroblasts were seeded in 96 well microtiter black-walled cell culture plates (Costar, Corning, N.Y., USA) at a density of 3000 cells per well (100 μL). The plates were incubated overnight at 37° C. in a humidified atmosphere of 5% CO2 in air to allow attachment of the cells to the culture plate. Serial dilutions of intervention and references compounds were made from their respective stock solutions to give a total volume of 150 μL in each well. Plates were incubated overnight in cell culture. The following day, 50 μL of a 4 mM BSO solution (in culture media) was added to each well to provide a final BSO concentration of 1 mM. Cell viability was assessed after first signs of toxicity appeared in BSO-treated cells (typically after 24-30 hours) by examining cultures under phase-contrast microscopy. The cell culture medium was discarded by aspiration and each well of the cell culture plate washed with pre-warmed HSSB to remove serum esterase activity. Cells were then treated in with 200 μL of 1.2 μM calcein-AM in HSSB for 60 min at 37° C. in the dark to allow the dye to enter the cell and be cleaved by esterases. The negative control/background was 200 μL of HSSB buffer. Fluorescence intensities were measured with a Spectramax M5 spectrofluorometer (Molecular Devices, Sunnyvale, Calif., USA) using excitation and emission of 485 nm and 525 nm respectively. The intervention compounds were assayed in triplicate. […] The viability of non-BSO treated fibroblasts was set as 100%, and the viability of the BSO-treated and sample-treated cells was calculated relative to this value. […]

Human CEM leukemia cells = assay: Live/Dead Viability/Cytotoxicity flow cytometry assay; assay type: cell-based; settings: overnight incubation, then DEM 3 hours
Description: Cell viability and cytotoxicity were determined by simultaneous staining live and dead cells using a two-color fluorescence assay, the Live/Dead® Viability/Cytotoxicity Kit (Molecular Probes). This assay is used to measure two recognized parameters of cell viability, intracellular esterase activity and plasma integrity. The membrane-impermeant DNA dye ethidium homodimer-1 (EthD-1) was used to identify dead cells whose plasma membrane integrity was disrupted. The membrane-permeant dye calcein-AM was used to label live cells. It penetrates into the cells where it is metabolized by cytoplasmic esterases and becomes a fluorescent but membrane-impermeant probe which is retained in viable cells. Human CEM leukemia cells were incubated overnight in RPMI medium (control) and in the presence of test compound and then treated with DEM for 3 hours. Cells were stained with 0.2 μM calcein-AM and 0.4 μM EthD-1. After 15 minutes, flow cytometry analysis was carried out using excitation at 488 nm. The green-fluorescent (539 nm) FL1-H channel, live-cell population appears in the lower right quadrant and the red-fluorescent (585 nm) FL2-H channel dead-cell population appears in the upper left quadrant (FIG. 11). In each analysis, 10,000 events were recorded. Results obtained were verified in three independent experiments.

[1] = pretreatment 0.5, 1 or 2.5 μM overnight, DEM

Row | Structure (SMILES) | maintaining mitochondrial membrane potential Δψm (CEM leukemia cells; [1]) | protection of FRDA fibroblasts from oxidative damage (cell viability) (FRDA fibroblasts) | EC50 (FRDA fibroblasts; Homo sapiens, Fibroblast) [nM] | preserving mitochondrial membrane potential Δψm (CEM leukemia cells; 4-hour pretreatment) | preserving mitochondrial membrane potential Δψm (CEM leukemia cells; 24-hour pretreatment) | maintaining mitochondrial membrane potential Δψm (CEM leukemia cells; FIG. 13, 4 or 24 hours pretreatment) | maintaining cell viability (Live/Dead kit, flow cytometry) (Human CEM leukemia cells) | EC50 (FRDA fibroblasts) [nM]
1 | Cc1nc(N(C)C)nc(CCCCCCCCCCO)c1O [Compound A, 2-N,N-dimethylamino-5-hydroxy-4-methyl-6-(10-hydroxydecyl)-pyrimidine] | clearly more effective in maintaining mitochondrial membrane potential; also recorded: very favorable properties | more effective than idebenone | 390 ± 28 | – | – | – | – | –
2 | Cc1nc2c(c(CC[C@](C)(O)CCC[C@H](C)CCC[C@H](C)CCCC(C)C)c1O)CCN2C [Compound C, 4-((3R,7R,11R)-3-hydroxy-3,7,11,15-tetramethylhexadecyl)-1,6-dimethyl-2,3-dihydro-1H-pyrrolo[2,3-b]pyridine-5-ol] | – | slightly more effective than α-tocopherol | 833 ± 75 | more effective than tocopherol in preserving mitochondrial membrane potential | comparable to tocopherol | superior to tocopherol in maintaining mitochondrial membrane potential | both effective in maintaining cell viability following treatment with DEM, with compound C being somewhat more effective; also recorded: superiority of compound C | –
3 | COC1=C(OC)C(=O)C(CCCCCCCCCCO)=C(C)C1=O [idebenone, reference compound] | less effective in this regard | – | 710 ± 80 | – | – | – | – | –
4 | Cc1c(C)c2c(c(C)c1O)CC[C@@](C)(CCC[C@H](C)CCC[C@H](C)CCCC(C)C)O2 [α-tocopherol, reference compound] | – | – | – | – | – | – | effective in maintaining cell viability following treatment with DEM | 1030 ± 116
